Results on seven molecules are retold here after US10702484B2, “Use of 3-(3-hydroxy-4-methoxy-phenyl)-1-(2,4,6-trihydroxy-phenyl) propan-1-one” (SYMRISE AG, priority 2016, dated 2020).

The conditions of experiment [1]: J. Chem. Senses 1979, 4(1), 35-47; cited from earlier work.
For experiment [2] the following is noted: in soft drinks; purity>90%; cited from earlier work.
Experiment [3] concerns group of experts. Description: Modification of the sweet profile of a sucrose solution (sensory panel). The format is in vivo. To be noted: for Beginning of sweet impression (<2 sec) / Overall sweet impression / Sugar full flavour and taste: n=12. An excerpt:
The taste profile of a 7 wt % aqueous sucrose solution was compared with by a group of experts (n=12) in each case with a specimen having an equivalent composition and additionally a 1.5% sucrose (B), 5 ppm, 7 ppm or 20 ppm hesperetin dihydrochalcone (I).

For experiment [4], the system named is group of experts. Description: Bitter-reduction of a bitter substance solution (sensory panel rating). The format is in vivo. To be noted: for Bitter impression of bitter substance + compound (I) (average values): n=18. An excerpt:
In order to quantify the decrease (i.e. the masking or reduction) in bitter impression in a specimen, the bitterness of a solution containing different bitter tasting substances in specific concentrations was compared by a group of experts (n=18) in each case with a specimen having an equivalent composition and additionally a specific concentration of hesperetin dihydrochalcone (I) (rating: 1 [not bitter] to 100 [extremely bitter]).
For the assessment, i.e. the calculation of the reduction (in %) of the bitter impression in each case the average values of the assessments of the group of experts for the respective bitter substance solution and the bitter substance solution also containing 10 ppm hesperetin dihydrochalcone (I) were used (*sign.lev. α=0.05). For comparison issues, the calculation of the reduction (in %) of the bitter impression for the respective bitter substance solution containing deoxy hesperetin dihydrochalcone is also included.

Experiment [5] concerns group of experts. In words: Intensification of the sweet impression of a sugar solution (sensory panel rating). The format is in vivo. From the text: In order to quantify the intensification of the sweet impression, in each case the sweetness of a 5% sucrose solution was compared by a group of experts with a specimen containing 5% sucrose and 1 ppm, 5 ppm, 7 ppm or 10 ppm of the hesperetin dihydrochalcone (I) to be used according to the invention (rating: 1 [not sweet] to 10 [extremely sweet]). For comparison issues, the intensification of the sweet impression containing with a specimen containing 5% sucrose and 10 ppm or 25 ppm deoxy hesperetin dihydrochalcone is also included.
For the assessment, i.e. calculation of the intensification (in %) of the sweet impression in each case the average values of the assessments of the group of experts for the sucrose solution and the specimen for comparison containing sucrose and hesperetin dihydrochalcone (I) or deoxy hesperetin dihydrochalcone were used.

The test system of the next experiment is group of 30 experts. Description: Intrinsic sweetness, two-alternative forced choice (2AFC) test. The format is in vivo. The following applies: 10 ppm in water, α=0.05. From the text: A group of 30 experts were asked in a two-alternative forced choice (2AFC) test to select the solution with the stronger sweet impression from a couple of solutions. The evaluated solutions-couples are selected from a group of solutions consisting of a solution of hesperetin dihydrochalcone (I) in water (20 ppm, 15 ppm, 12.5 ppm, and 10 ppm) and a 1.5 wt % aqueous sucrose solution.

The subject of experiment [6] is group of experts. In words: Improvement of the taste profile of chicken flavour (sensory panel). The format is in vivo. To be noted: addition of 2 ppm; n=3. From the text: A group of experts (n=3) evaluated the influence on the taste profile of a chicken flavour with the typical descriptors of chicken meat note, boiled note, bony, light sour by the addition of 2 ppm hesperetin dihydrochalcone (I).

Experiment [7] deals with group of experts. Description: Modulation of the cooling-profile of WS-3 (sensory panel). In kind it is in vivo. The following applies: 1 ppm added to aqueous solution of 5 wt % sucrose and 4 ppm WS-3; n=5. An excerpt: A group of experts (n=5) evaluated the influence on the cooling profile of an aqueous solution containing 5 wt % sucrose and 4 ppm WS-3.
For experiment [8] the following is noted: in the presence of acids; cited from earlier work.
[9] abbreviates: 7% Sucrose-solution + 1.5% Sucrose (=8.5% sucrose solution).
Setting [10] is: 5% sucrose + 10 ppm test substance.
Setting [11] is: 5% sucrose + 10 ppm test substance, rating 1 to 10.
[12] abbreviates: 7 wt % aqueous sucrose solution.

As for `COc1ccc(CCC(=O)c2c(O)cccc2O)cc1O` [dihydrochalcone (3)], the “Taste (sweetening power) as presented in the publication” value in experiment [1] is “tasteless”.

Consider `C=C1C[C@@]23CC[C@H]4[C@@](C)(CCC[C@@]4(C)C(=O)O[C@@H]4O[C@H](CO)[C@@H](O)[C@H](O)[C@H]4O)[C@@H]2CC[C@]1(O[C@@H]1O[C@H](CO)[C@@H](O)[C@H](O[C@@H]2O[C@H](CO)[C@@H](O)[C@H](O)[C@H]2O)[C@H]1O[C@@H]1O[C@H](CO)[C@@H](O)[C@H](O)[C@H]1O)C3` [rebaudioside A], for which, in [2], the “Concentration necessary to achieve a sweetness corresponding to a concentration of sucrose of 10% by weight” value is given as 400-600 ppm.

Regarding `OC[C@H]1O[C@@](CO)(O[C@H]2O[C@H](CO)[C@@H](O)[C@H](O)[C@H]2O)[C@@H](O)[C@@H]1O` [Sucrose, sucrose, reference compound], in the experiment on group of experts [3] (setting [9]), the “Beginning of sweet impression (<2 sec)” value worked out at 5.74; the Overall sweet impression came out at 6.36; the “Sugar full flavour and taste” value is 5.17.

For the molecule “deoxy hesperetin dihydrochalcone [reference compound]”, the “Reduction in bitter impression by adding 50 ppm of deoxy hesperetin dihydrochalcone” value is recorded as “+10.7%” with group of experts [4] (5 ppm Chininhydrochloride), −6.6% in the experiment with group of experts [4] (100 ppm Naringin), −15.2% in the experiment with group of experts [4] (250 ppm Salicin) and −11.3% with group of experts [4] (500 ppm Coffeine). Further, the “Reduction of the bitter impression of Chininhydrochloride (in words)” value in the experiment with group of experts [4] (50 ppm) is recorded as “no reduction”. Moreover, the “Amount necessary, as factor of the amount of hesperetin dihydrochalcone (I), to obtain a similar reduction of the bitter impression” value with group of experts [4] (50 ppm versus 10 ppm) is reported as 5. The results for the “Intensification of the sweet impression” value with group of experts [5] (setting [10]) and with group of experts [5] (5% sucrose + 25 ppm test substance) were 21.2% and 42%, respectively. For the same molecule, the “Sweet impression (1-10) Specimen (Sucrose + Test substance)” value in the experiment with group of experts [5] (setting [11]) is 6.4; with group of experts [5] (5% sucrose + 25 ppm test substance, rating 1 to 10), 6.9.

With `COc1ccc(CCC(=O)c2c(O)cc(O)cc2O)cc1O` [hesperetin dihydrochalcone (I), 3-(3-Hydroxy-4-methoxy-phenyl)-1-(2,4,6-trihydroxyphenyl)propan-1-one], the “Reduction in bitter impression by adding 10 ppm of compound (I)” value with group of experts [4] (5 ppm Chininhydrochloride) was −25.0%; in the experiment on group of experts [4] (100 ppm Naringin, * sign.lev. α=0.05), −21.5%*; with group of experts [4] (250 ppm Salicin, * sign.lev. α=0.05) it was −17.6%*; in the experiment with group of experts [4] (300 ppm Theobromine), −12.4%; in the experiment with group of experts [4] (500 ppm Coffeine), −13.8%. Moreover, the “Bitter impression of bitter substance + compound (I) (average values)” value in the experiment with group of experts [4] (5 ppm Chininhydrochloride + 10 ppm compound (I), rating 1 to 100) is 29.05; with group of experts [4] (100 ppm Naringin + 10 ppm compound (I), rating 1 to 100), 46.54; in the experiment with group of experts [4] (250 ppm Salicin + 10 ppm compound (I), rating 1 to 100) it was 51.40; with group of experts [4] (300 ppm Theobromine + 10 ppm compound (I), rating 1 to 100) it was 45.01; in the experiment on group of experts [4] (500 ppm Coffeine + 10 ppm compound (I), rating 1 [not bitter] to 100 [extremely bitter]), 37.46. Also, the “Reduction of the bitter impression of Chininhydrochloride (in words)” value in the experiment on group of experts [4] (10 ppm) is “remarkable reduction”. Besides, the “Reduction of the bitter impression of Naringin compared to deoxy hesperetin dihydrochalcone (in words)” value in the experiment on group of experts [4] (Naringin, 10 ppm versus 50 ppm deoxy hesperetin dihydrochalcone) was “notable increase in the reduction of the bitter impression”. Also, the “Intensification of the sweet impression” value in the experiment with group of experts [5] (5% sucrose + 1 ppm test substance) worked out at 14.1%; in the experiment on group of experts [5] (5% sucrose + 5 ppm test substance), 32.6%; in the experiment with group of experts [5] (5% sucrose + 7 ppm test substance), 35.7%; in the experiment on group of experts [5] (setting [10]), 38.6%. Further, the “Sweet impression (1-10) Specimen (Sucrose + Test substance)” value with group of experts [5] (5% sucrose + 1 ppm test substance, rating 1 [not sweet] to 10 [extremely sweet]) was determined as 6.1; in the experiment on group of experts [5] (5% sucrose + 5 ppm test substance, rating 1 to 10), 7.1; in the experiment with group of experts [5] (5% sucrose + 7 ppm test substance, rating 1 to 10), 7.3; in the experiment with group of experts [5] (setting [11]), 7.8. Further, the “Intensification of the sweet impression compared to 10 ppm deoxy hesperetin dihydrochalcone (in words)” value in the experiment on group of experts [5] (5 ppm, 5% sucrose) is reported as “clearly higher”. Further, in the experiment on group of experts [5] (10 ppm, 5% sucrose), the “Intensification of the sweet impression compared to the same amount of deoxy hesperetin dihydrochalcone (in words)” value is given as “remarkable intensification”. The “Sweet impression compared to the 1.5 wt % aqueous sucrose solution” value in the experiment with group of 30 experts is recorded as “remarkably weaker”. Further, the figures for the “Beginning of sweet impression (<2 sec)” value in the experiment on group of experts [3] (7% Sucrose-solution + 5 ppm), in the experiment with group of experts [3] (7% Sucrose-solution + 7 ppm) and in the experiment with group of experts [3] (7% Sucrose-solution + 20 ppm) were 4.63, 4.78 and 4.49, respectively. For the same molecule, the Overall sweet impression turned out to be 5.24 in the experiment on group of experts [3] (7% Sucrose-solution + 5 ppm), 5.93 in the experiment on group of experts [3] (7% Sucrose-solution + 7 ppm) and 4.90 in the experiment on group of experts [3] (7% Sucrose-solution + 20 ppm). The “Sugar full flavour and taste” value in the experiment on group of experts [3] (7% Sucrose-solution + 5 ppm) came out at 4.26; in the experiment with group of experts [3] (7% Sucrose-solution + 7 ppm), 4.42; with group of experts [3] (7% Sucrose-solution + 20 ppm) it was 4.11. Moreover, the “Effect on the overall sweet impression (in words)” value with group of experts [3] (setting [12]) is “increases”. Also, the “Influence on the beginning of sweet impression (sweet impact) and the perceived sugar full flavour and taste (in words)” value with group of experts [3] (setting [12]) was “positive influence”. In addition, in the experiment with group of experts [6], the “Influence on the taste profile of chicken flavour (chicken meat note, boiled note, bony, light sour)” value is recorded as “without a negative influence”. In addition, the “Mouth fullness of chicken flavour (in words)” value in the experiment with group of experts [6] is given as “remarkably enhance”. Also, the “Cooling effect (in words)” value in the experiment on group of experts [7] is “slightly improvement”. In the experiment with group of experts [7], the “Perception of cooling impression (in words)” value is given as “faster”.

For the molecule `COc1ccc(CCC(=O)c2ccccc2O)cc1O` [dihydrochalcone (2)], the “Taste (sweetening power) as presented in the publication” value in experiment [1] was “intensively sweet tasting”.

B1: miraculin (protein, UniProt P13087 30-220, looked up)
Miraculin: DSAPNPVLDIDGEKLRTGTNYYIVPVLRDHGGGLTVSATTPNGTFVCPPRVVQTRKEVDHDRPLAFFPENPKEDVVRVSTDLNINFSAFMPCRWTSSTVWRLDKYDESTGQYFVTIGGVKGNPGPETISSWFKIEEFCGSGFYKLVFCPTVCGSCKVKCGDVGIYIDQKGRRRLALSDKPFAFEFNKTVYF
notes: protein that in the presence of acids transforms the sour impression into a sweet taste impression
As for B1, the “Duration of the effect (sour impression transformed into sweet taste impression)” value in experiment [8] is 2 to 4 h.
